Assay results published in ChEMBL document CHEMBL5131542, “Exploring Degradation of Mutant and Wild-Type Epidermal Growth Factor Receptors Induced by Proteolysis-Targeting Chimeras” (J Med Chem, 2022).
Active and inactive are the calls of the source. No cut-off for these calls is given here.

Key:
NCI-H1299 = experiment: Antiproliferative activity against human NCI-H1299 cells expressing wild type EGFR assessed as cell growth inhibition at 1 uM in presence of pictilisib; type: functional, cell-based
HCC827 = experiment: Antiproliferative activity against human HCC827 cells assessed as cell growth inhibition incubated for 3 days by CCK-8 assay; type: functional; conditions: HCC827, 72 h, time 3 day
OVCAR-8 = experiment: Antiproliferative activity against human OVCAR-8 cells expressing wild type EGFR assessed as cell growth inhibition at 1 uM in presence of pictilisib; type: functional, cell-based
[1] = tested on: von Hippel-Lindau disease tumor suppressor/Epidermal growth factor receptor (Homo sapiens), P00533+P40337 [UNDEFINED MUTATION]; experiment: PROTAC activity at VHL/EGFR Del19 mutant in human HCC827 cells assessed as EGFR degradation treated after 8 hrs under serum starvation condition at 10 to 1000 nM measured after 16 hrs by Western blotting analysis; type: cell-based; conditions: dose 10-1000 nM
[2] = target: T1, von Hippel-Lindau disease tumor suppressor/Epidermal growth factor receptor (Homo sapiens, UniProt P00533+P40337); experiment: PROTAC activity at VHL/EGFR Del19 mutant in human HCC827 cells; type: cell-based
[3] = target: Epidermal growth factor receptor (Homo sapiens, UniProt P00533); experiment: Binding affinity to human wild type partial length EGFR (R669 to V1011 residues) expressed in bacterial expression system assessed as immobilized ligand binding by competitive binding assay
[4] = target: Epidermal growth factor receptor (Homo sapiens, UniProt P00533, L858R); experiment: Binding affinity to human partial length EGFR (R669 to V1011 residues) L858R mutant expressed in bacterial expression system assessed as immobilized ligand binding by competitive binding assay
[5] = target: T1, von Hippel-Lindau disease tumor suppressor/Epidermal growth factor receptor; experiment: PROTAC activity at VHL/wild type EGFR in human OVCAR-8 cells assessed as EGFR degradation measured after 24 hrs by Immunoblotting analysis; type: cell-based
Target sequence in this assay (P00533 whole entry, the tested form may be a part): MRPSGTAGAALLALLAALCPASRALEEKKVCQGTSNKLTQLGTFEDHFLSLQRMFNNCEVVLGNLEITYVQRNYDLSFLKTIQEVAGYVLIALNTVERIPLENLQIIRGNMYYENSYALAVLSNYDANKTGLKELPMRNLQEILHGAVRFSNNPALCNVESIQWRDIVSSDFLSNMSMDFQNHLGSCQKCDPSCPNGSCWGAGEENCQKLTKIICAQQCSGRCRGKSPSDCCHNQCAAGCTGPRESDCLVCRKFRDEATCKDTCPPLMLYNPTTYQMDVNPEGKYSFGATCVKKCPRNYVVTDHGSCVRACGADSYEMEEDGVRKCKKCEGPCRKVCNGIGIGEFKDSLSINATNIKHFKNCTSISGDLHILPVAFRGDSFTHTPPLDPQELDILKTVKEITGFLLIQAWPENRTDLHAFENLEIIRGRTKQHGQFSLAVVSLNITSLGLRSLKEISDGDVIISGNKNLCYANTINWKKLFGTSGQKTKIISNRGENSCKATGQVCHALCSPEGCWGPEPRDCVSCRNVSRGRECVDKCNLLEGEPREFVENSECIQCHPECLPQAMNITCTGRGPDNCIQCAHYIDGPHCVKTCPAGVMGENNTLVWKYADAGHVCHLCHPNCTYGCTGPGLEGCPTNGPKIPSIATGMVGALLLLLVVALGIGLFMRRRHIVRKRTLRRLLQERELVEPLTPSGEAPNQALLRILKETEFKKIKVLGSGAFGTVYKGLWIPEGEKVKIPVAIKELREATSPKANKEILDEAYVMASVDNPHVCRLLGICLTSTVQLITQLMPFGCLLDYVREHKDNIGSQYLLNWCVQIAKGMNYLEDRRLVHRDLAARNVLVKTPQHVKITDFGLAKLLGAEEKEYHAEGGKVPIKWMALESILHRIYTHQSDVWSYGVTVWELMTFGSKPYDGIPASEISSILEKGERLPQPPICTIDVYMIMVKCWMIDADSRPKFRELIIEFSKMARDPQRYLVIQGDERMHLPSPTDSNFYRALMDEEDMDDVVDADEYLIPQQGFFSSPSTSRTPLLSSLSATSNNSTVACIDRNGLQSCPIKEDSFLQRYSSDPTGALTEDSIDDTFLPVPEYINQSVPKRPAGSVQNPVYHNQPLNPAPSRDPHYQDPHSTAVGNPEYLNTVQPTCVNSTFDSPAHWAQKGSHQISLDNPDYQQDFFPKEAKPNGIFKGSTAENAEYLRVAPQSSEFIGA
Target sequence in this assay (P40337 whole entry, the tested form may be a part): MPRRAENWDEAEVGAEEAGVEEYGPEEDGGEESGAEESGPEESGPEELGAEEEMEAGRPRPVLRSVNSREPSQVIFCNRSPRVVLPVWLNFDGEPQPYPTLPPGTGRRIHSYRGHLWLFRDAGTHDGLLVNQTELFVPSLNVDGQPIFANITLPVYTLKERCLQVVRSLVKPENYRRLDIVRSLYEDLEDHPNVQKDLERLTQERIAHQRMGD

[6] = tested on: Protein cereblon/Epidermal growth factor receptor (Homo sapiens), P00533+Q96SW2 [UNDEFINED MUTATION]; experiment: PROTAC activity at CRBN/EGFR Del19 mutant in human HCC827 cells assessed as EGFR degradation treated after 8 hrs under serum starvation condition at 1 uM measured after 16 hrs by Western blotting analysis; type: cell-based
[7] = tested on: Protein cereblon/Epidermal growth factor receptor (Homo sapiens), P00533+Q96SW2 [UNDEFINED MUTATION]; experiment: PROTAC activity at CRBN/EGFR Del19 mutant in human HCC827 cells assessed as EGFR degradation treated after 8 hrs under serum starvation condition at 100 nM measured after 16 hrs by Western blotting analysis; type: cell-based

Chain of von Hippel-Lindau disease tumor suppressor/Epidermal growth factor receptor (Homo sapiens), P00533+P40337 [UNDEFINED MUTATION] (P00533 whole entry, looked up, stated change not applied): as the sequence (P00533 whole entry, the tested form may be a part) above
Chain of von Hippel-Lindau disease tumor suppressor/Epidermal growth factor receptor (Homo sapiens), P00533+P40337 [UNDEFINED MUTATION] (P40337 whole entry, looked up, stated change not applied): as the sequence (P40337 whole entry, the tested form may be a part) above
Chain of Protein cereblon/Epidermal growth factor receptor (Homo sapiens), P00533+Q96SW2 [UNDEFINED MUTATION] (P00533 whole entry, looked up, stated change not applied): as the sequence (P00533 whole entry, the tested form may be a part) above
Chain of Protein cereblon/Epidermal growth factor receptor (Homo sapiens), P00533+Q96SW2 [UNDEFINED MUTATION] (Q96SW2 whole entry, looked up, stated change not applied): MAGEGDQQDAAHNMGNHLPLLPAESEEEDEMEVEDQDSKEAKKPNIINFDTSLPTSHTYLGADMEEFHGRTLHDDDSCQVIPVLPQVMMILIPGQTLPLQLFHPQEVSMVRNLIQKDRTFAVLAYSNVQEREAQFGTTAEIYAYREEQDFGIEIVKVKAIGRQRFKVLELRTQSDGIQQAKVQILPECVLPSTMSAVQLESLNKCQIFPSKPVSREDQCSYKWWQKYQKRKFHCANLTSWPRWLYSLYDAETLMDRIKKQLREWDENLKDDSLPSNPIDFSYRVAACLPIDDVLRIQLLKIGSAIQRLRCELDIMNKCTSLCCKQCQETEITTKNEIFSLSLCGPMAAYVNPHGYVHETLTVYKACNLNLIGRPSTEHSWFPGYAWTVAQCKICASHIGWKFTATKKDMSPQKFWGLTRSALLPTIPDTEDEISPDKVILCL

SMILES	GI50 (HCC827)	Activity [1]	further results
COc1cc2ncnc(Nc3ccc(F)c(Cl)c3)c2cc1OCCCN1CCN(C(=O)CCCCCCCCCCNC(=O)C[C@H](NC(=O)[C@@H]2C[C@@H](O)CN2C(=O)[C@@H](c2cc(C)no2)C(C)C)c2ccc(-c3scnc3C)cc2)CC1	250 nM	–	Activity (NCI-H1299): Active; Activity (OVCAR-8): Active
COc1cc2ncnc(Nc3ccc(F)c(Cl)c3)c2cc1OCCCN1CCN(C(=O)CCCCCCCCCC(=O)N[C@H](C(=O)N2C[C@H](O)C[C@H]2C(=O)NCc2ccc(-c3scnc3C)cc2)C(C)(C)C)CC1	230 nM	–	Activity (NCI-H1299): Active; Activity (OVCAR-8): Active
COc1cc2ncnc(Nc3ccc(F)c(Cl)c3)c2cc1OCCCN1CCN(C(=O)CCNC(=O)C[C@H](NC(=O)[C@@H]2C[C@@H](O)CN2C(=O)[C@@H](NC(=O)C2(F)CC2)C(C)(C)C)c2ccc(-c3scnc3C)cc2)CC1	1020 nM	–	–
COc1cc2ncnc(Nc3ccc(F)c(Cl)c3)c2cc1OCCCN1CCN(C(=O)CCCCCCCCCNC(=O)C[C@H](NC(=O)[C@@H]2C[C@@H](O)CN2C(=O)[C@@H](c2cc(C)no2)C(C)C)c2ccc(-c3scnc3C)cc2)CC1	590 nM	Active	–
Cc1ncsc1-c1ccc(CNC(=O)[C@@H]2C[C@@H](O)CN2C(=O)[C@@H](NC(=O)CCCCCCCCCCn2cc(COc3cc4ncnc(Nc5ccc(F)c(Cl)c5)c4cc3NC(=O)/C=C/CN3CCCCC3)nn2)C(C)(C)C)cc1	–	–	DC50 [2]: 3.6 nM
COc1cc2ncnc(Nc3ccc(F)c(Cl)c3)c2cc1OCCCN1CCN(C(=O)CCOCCOCCOCCOCCOCCNc2ccc3c(c2)C(=O)N(C2CCC(=O)N(C)C2=O)C3=O)CC1 (stereo unspecified)	–	–	Kd [3]: 6.4 nM; Kd [4]: 2.9 nM
COc1cc2ncnc(Nc3ccc(F)c(Cl)c3)c2cc1OCCCN1CCN(C(=O)CCCCCNC(=O)C[C@H](NC(=O)[C@@H]2C[C@@H](O)CN2C(=O)[C@@H](c2cc(C)no2)C(C)C)c2ccc(-c3scnc3C)cc2)CC1	790 nM	Active	–
COc1cc2ncnc(Nc3ccc(F)c(Cl)c3)c2cc1OCCCN1CCN(C(=O)CCNC(=O)C[C@H](NC(=O)[C@@H]2C[C@@H](O)CN2C(=O)[C@@H](c2cc(C)no2)C(C)C)c2ccc(-c3scnc3C)cc2)CC1	780 nM	Active	–
COc1cc2ncnc(Nc3ccc(F)c(Cl)c3)c2cc1OCCCN1CCN(C(=O)CNC(=O)C[C@H](NC(=O)[C@@H]2C[C@@H](O)CN2C(=O)[C@@H](c2cc(C)no2)C(C)C)c2ccc(-c3scnc3C)cc2)CC1	710 nM	Active	–
Cc1ncsc1-c1ccc(CNC(=O)[C@@H]2C[C@@H](O)CN2C(=O)[C@@H](NC(=O)COCCOCCOc2ccc(-c3ccc4ncnc(Nc5ccc(OCc6cccc(F)c6)c(Cl)c5)c4c3)cc2)C(C)(C)C)cc1	–	–	DC50 [5]: 39 nM
COc1cc2ncnc(Nc3ccc(F)c(Cl)c3)c2cc1OCCCN1CCN(C(=O)CCCCCCCNC(=O)C[C@H](NC(=O)[C@@H]2C[C@@H](O)CN2C(=O)[C@@H](c2cc(C)no2)C(C)C)c2ccc(-c3scnc3C)cc2)CC1	610 nM	Active	–
COc1cc2ncnc(Nc3ccc(F)c(Cl)c3)c2cc1OCCCN1CCN(CCC(=O)NCCCCCCCCOc2cccc3c2C(=O)N(C2CCC(=O)NC2=O)C3)CC1 (stereo unspecified)	660 nM	–	Activity (NCI-H1299): Active; Activity (OVCAR-8): Active
COc1cc2ncnc(Nc3ccc(F)c(Cl)c3)c2cc1OCCCN1CCN(C(=O)CCCCCCCCNC(=O)C[C@H](NC(=O)[C@@H]2C[C@@H](O)CN2C(=O)[C@@H](c2cc(C)no2)C(C)C)c2ccc(-c3scnc3C)cc2)CC1	460 nM	Active	–
COc1cc2ncnc(Nc3ccc(F)c(Cl)c3)c2cc1OCCCN1CCN(C(=O)CCCNC(=O)C[C@H](NC(=O)[C@@H]2C[C@@H](O)CN2C(=O)[C@@H](c2cc(C)no2)C(C)C)c2ccc(-c3scnc3C)cc2)CC1	880 nM	Active	–
COc1cc2ncnc(Nc3ccc(F)c(Cl)c3)c2cc1OCCCN1CCN(C(=O)CCCCNC(=O)C[C@H](NC(=O)[C@@H]2C[C@@H](O)CN2C(=O)[C@@H](c2cc(C)no2)C(C)C)c2ccc(-c3scnc3C)cc2)CC1	770 nM	–	–
COc1cc2ncnc(Nc3ccc(F)c(Cl)c3)c2cc1OCCCN1CCN(CCC(=O)NCCCCCCCCNc2ccc3c(c2)C(=O)N(C2CCC(=O)NC2=O)C3=O)CC1 (stereo unspecified)	–	–	Activity [6]: Active; Activity [7]: Active
COc1cc2ncnc(Nc3ccc(F)c(Cl)c3)c2cc1OCCCN1CCN(C(=O)CCOCCOCCOCCOCCOCCNc2ccc3c(c2)C(=O)N(C2CCC(=O)NC2=O)C3=O)CC1 (stereo unspecified)	870 nM	–	Activity (NCI-H1299): Active; Activity (OVCAR-8): Active
COc1cc2ncnc(Nc3ccc(F)c(Cl)c3)c2cc1OCCCN1CCN(C(=O)C[C@H](NC(=O)[C@@H]2C[C@@H](O)CN2C(=O)[C@@H](c2cc(C)no2)C(C)C)c2ccc(-c3scnc3C)cc2)CC1	730 nM	–	–
COc1cc2ncnc(Nc3ccc(F)c(Cl)c3)c2cc1OCCCN1CCN(C(=O)CCOCCOCCOCCOCCNc2ccc3c(c2)C(=O)N(C2CCC(=O)NC2=O)C3=O)CC1 (stereo unspecified)	930 nM	–	–
